Test results reported in patent US11000033B2, “Ketone or oxime compound, and herbicide” (NISSAN CHEMICAL CORPORATION, priority 2014, dated 2021).

What was measured:
Format in all cases: in vivo
[1] = system: rapeseed; assay: Test Example 5: effect on crop by foliage application, plastic box (symbol g); details: 320 g/ha, 3 weeks after application
Outline: (§1)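 Diluvial soil, sterilized and boxed (21 × 13 × 7 cm), received spot-sown seed covered by about 1.5 cm soil; plants were then greenhouse-grown at 25–30° C.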

[2] = system: Apera spica-venti; assay: Test Example 4: herbicidal effect by soil treatment (symbol L); details: for L: Apera spica-venti, herbicidal effect grade: 320 g/ha
Outline: (§2)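 Seeds were sown in sterilized diluvial soil, covered with about 1.5 cm of soil, and the soil surface was sprayed with a water-diluted emulsion of the compound at a predetermined rate. Plants grew in a greenhouse at 25° C. to 30° C.; effects were scored visually 3 weeks after application.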

[3] = system: Amaranthus retroflexus; assay: Test Example 5: herbicidal effect by foliage application, plastic box (symbol N); details: 320 g/ha, 3 weeks after application
Outline: (§3)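 Emulsion formulation, diluted with water to the intended rate, was applied uniformly to leaves by small sprayer. Recipients were 14-day greenhouse-grown seedlings (25° C. to 30° C.). Assessment followed at 3 weeks.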

[4] = system: transplanted rice plant; assay: Test Example 1: effect on crop, application before weed generation in submerged conditions (symbol a); details: application herbicide amount 320 g/ha
Outline: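 Rice at 2.5 leaf stage transplanted into submerged soil (4 cm depth) sown with three weed species; herbicide applied before weed emergence.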

[5] = system: corn; assay: Test Example 5: effect on crop by foliage application, plastic box (symbol c); details: 320 g/ha, 3 weeks after application
Outline: as §1

[6] = system: Avena fatua; assay: Test Example 4: herbicidal effect by soil treatment (symbol I); details: for I: Avena fatua, herbicidal effect grade: 320 g/ha
Outline: as §2

[7] = system: Abutilon theophrasti; assay: Test Example 5: herbicidal effect by foliage application, plastic box (symbol M); details: 320 g/ha, 3 weeks after application
Outline: as §3

[8] = system: Alopecurus myosuroides; assay: Test Example 4: herbicidal effect by soil treatment (symbol J); details: for J: Alopecurus myosuroides, herbicidal effect grade: 320 g/ha
Outline: as §2

[9] = system: Chenopodium album; assay: Test Example 5: herbicidal effect by foliage application, plastic box (symbol O); details: 320 g/ha, 3 weeks after application
Outline: as §3

[10] = system: Veronica persica; assay: Test Example 4: herbicidal effect by soil treatment (symbol R); details: for R: Veronica persica, herbicidal effect grade: 320 g/ha
Outline: as §2

[11] = system: Setaria viridis; assay: Test Example 4: herbicidal effect by soil treatment (symbol G); details: for G: Setaria viridis, herbicidal effect grade: 320 g/ha
Outline: as §2

[12] = system: Echinochloa crus-galli var. crus-galli; assay: Test Example 5: herbicidal effect by foliage application, plastic box (symbol H); details: 320 g/ha, 3 weeks after application
Outline: as §3

[13] = system: Monochoria vaginalis; assay: Test Example 1: herbicidal activity, application before weed generation in submerged conditions (symbol C); details: application herbicide amount 320 g/ha
Outline: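 Mixed weed seeds sown in alluvial soil under 4 cm of water, with rice seedlings at the 2.5-leaf stage added. Same-day treatment: emulsion diluted to a set herbicide amount onto the water. Three weeks at 25–30 °C, then graded on a six-step scale.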

[14] = system: Stellaria media; assay: Test Example 5: herbicidal effect by foliage application, plastic box (symbol P); details: 320 g/ha, 3 weeks after application
Outline: as §3

[15] = system: Stellaria media; assay: Test Example 4: herbicidal effect by soil treatment (symbol P); details: for P: Stellaria media, herbicidal effect grade: 320 g/ha
Outline: as §2

[16] = system: Lolium multiflorum Lam.; assay: Test Example 5: herbicidal effect by foliage application, plastic box (symbol K); details: 320 g/ha, 3 weeks after application
Outline: as §3

[17] = system: Leptochloa chinensis; assay: Test Example 3: herbicidal effect by foliage application, Wagner pot (symbol D); details: application herbicide amount 320 g/ha
Outline: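 Rating at 3 weeks post-spray, by defined criteria. Treatment: emulsion diluted with water to a predetermined amount, applied evenly to foliage of 14-day-old plants raised in alluvial soil flooded 0.1–0.5 cm deep at 25–30 °C, rice co-sown.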

[18] = application herbicide amount 320 g/ha

`CON=C(C)CC1CC(OC(=O)COc2ccc(C(C)=O)cc2)=C(c2c(C)cc(C)cc2C)C1=O` (centres unmarked) [1-080] was tested, and the “g: rapeseed, effect on crop (criteria 0-5)” value [1] was 4 (Herbicidal ratio of 70% or higher and lower than 90%), the “L: Apera spica-venti, herbicidal effect grade” value [2] was 5 (Herbicidal ratio of 90% or more (almost completely withered)) and the “N: Amaranthus retroflexus, herbicidal effect (criteria 0-5)” value [3] was 0 (Herbicidal ratio of 5% or lower (almost no effect)). The “Effect grade on crop, a: transplanted rice plant” value (shortened to “Effect grade on crop”) [4] was 5 (Herbicidal ratio of 90% or more (almost completely withered)), the “c: corn, effect on crop (criteria 0-5)” value [5] was 5 (Herbicidal ratio of 90% or more (almost completely withered)) and the “I: Avena fatua, herbicidal effect grade” value [6] was 3 (Herbicidal ratio of 40% or higher and lower than 70%). The “M: Abutilon theophrasti, herbicidal effect (criteria 0-5)” value [7] was 4 (Herbicidal ratio of 70% or higher and lower than 90%), the “J: Alopecurus myosuroides, herbicidal effect grade” value [8] was 5 (Herbicidal ratio of 90% or more (almost completely withered)) and the “O: Chenopodium album, herbicidal effect (criteria 0-5)” value [9] was 3 (Herbicidal ratio of 40% or higher and lower than 70%). The “R: Veronica persica, herbicidal effect grade” value [10] was 0 (Herbicidal ratio of 5% or lower (almost no effect)), the “G: Setaria viridis, herbicidal effect grade” value [11] was 5 (Herbicidal ratio of 90% or more (almost completely withered)) and the “H: Echinochloa crus-galli var. crus-galli, herbicidal effect (criteria 0-5)” value [12] was 5 (Herbicidal ratio of 90% or more (almost completely withered)). The “Herbicidal effect grade, C: Monochoria vaginalis” value (“Herbicidal effect grade, C” for short) [13] was 3 (Herbicidal ratio of 40% or higher and lower than 70%), the “P: Stellaria media, herbicidal effect (criteria 0-5)” value [14] was 0 (Herbicidal ratio of 5% or lower (almost no effect)) and the “P: Stellaria media, herbicidal effect grade” value [15] was 0 (Herbicidal ratio of 5% or lower (almost no effect)). The “K: Lolium multiflorum Lam., herbicidal effect (criteria 0-5)” value [16] was 5 (Herbicidal ratio of 90% or more (almost completely withered)) and the “herbicidal effect on D (Leptochloa chinensis), grade 0-5” value (“herbicidal effect on D” below) [17] was 5 (Herbicidal ratio of 90% or more (almost completely withered)).

`CON=C(CC1CC(O)=C(c2c(C)cc(C#C[Si](C)(C)C)cc2C)C1=O)C(C)C` (centres unmarked) [9-005] was tested, and the “g: rapeseed, effect on crop grade” value [1] was 3 (Herbicidal ratio of 40% or higher and lower than 70%), the “Herbicidal effect grade, L: Apera spica-venti” value [2, 18] was 1 (Herbicidal ratio of 5% or higher and lower than 20%) and the “N: Amaranthus retroflexus, herbicidal effect grade” value [3] was 0 (Herbicidal ratio of 5% or lower (almost no effect)). The “Effect grade on crop” value [4] was 4 (Herbicidal ratio of 70% or higher and lower than 90%), the “c: corn, effect on crop grade” value [5] was 3 (Herbicidal ratio of 40% or higher and lower than 70%) and the “Herbicidal effect grade, I: Avena fatua” value [6, 18] was 0 (Herbicidal ratio of 5% or lower (almost no effect)). For the same molecule, the “M: Abutilon theophrasti, herbicidal effect grade” value [7] was 0 (Herbicidal ratio of 5% or lower (almost no effect)), the “Herbicidal effect grade, J: Alopecurus myosuroides” value [8, 18] was 1 (Herbicidal ratio of 5% or higher and lower than 20%) and the “O: Chenopodium album, herbicidal effect grade” value [9] was 0 (Herbicidal ratio of 5% or lower (almost no effect)). The “Herbicidal effect grade, R: Veronica persica” value [10, 18] was 0 (Herbicidal ratio of 5% or lower (almost no effect)), the “Herbicidal effect grade, G: Setaria viridis” value [11, 18] was 0 (Herbicidal ratio of 5% or lower (almost no effect)) and the “H: Echinochloa crus-galli var. crus-galli, herbicidal effect grade” value [12] was 5 (Herbicidal ratio of 90% or more (almost completely withered)). For the same molecule, the “Herbicidal effect grade, C” value [13] was 0 (Herbicidal ratio of 5% or lower (almost no effect)), the “P: Stellaria media, herbicidal effect grade” value [14] was 0 (Herbicidal ratio of 5% or lower (almost no effect)) and the “Herbicidal effect grade, P: Stellaria media” value [15, 18] was 0 (Herbicidal ratio of 5% or lower (almost no effect)). For the same molecule, the “K: Lolium multiflorum Lam., herbicidal effect grade” value [16] was 5 (Herbicidal ratio of 90% or more (almost completely withered)) and the “D (Leptochloa chinensis) herbicidal effect grade” value ([17]; Table 24) was 5 (Herbicidal ratio of 90% or more (almost completely withered)).

With `CON=C(C)CC1CC(OC(=O)COc2ccc(I)cc2)=C(c2c(C)cc(C)cc2C)C1=O` (centres unmarked) [1-082] the “g: rapeseed, effect on crop (criteria 0-5)” value [1] was 4 (Herbicidal ratio of 70% or higher and lower than 90%), the “L: Apera spica-venti, herbicidal effect grade” value [2] was 5 (Herbicidal ratio of 90% or more (almost completely withered)) and the “N: Amaranthus retroflexus, herbicidal effect (criteria 0-5)” value [3] was 0 (Herbicidal ratio of 5% or lower (almost no effect)). The “Effect grade on crop” value [4] was 5 (Herbicidal ratio of 90% or more (almost completely withered)), the “c: corn, effect on crop (criteria 0-5)” value [5] was 5 (Herbicidal ratio of 90% or more (almost completely withered)) and the “I: Avena fatua, herbicidal effect grade” value [6] was 3 (Herbicidal ratio of 40% or higher and lower than 70%). For the same molecule, the “M: Abutilon theophrasti, herbicidal effect (criteria 0-5)” value [7] was 4 (Herbicidal ratio of 70% or higher and lower than 90%), the “J: Alopecurus myosuroides, herbicidal effect grade” value [8] was 5 (Herbicidal ratio of 90% or more (almost completely withered)) and the “O: Chenopodium album, herbicidal effect (criteria 0-5)” value [9] was 1 (Herbicidal ratio of 5% or higher and lower than 20%). For the same molecule, the “R: Veronica persica, herbicidal effect grade” value [10] was 0 (Herbicidal ratio of 5% or lower (almost no effect)), the “G: Setaria viridis, herbicidal effect grade” value [11] was 5 (Herbicidal ratio of 90% or more (almost completely withered)) and the “H: Echinochloa crus-galli var. crus-galli, herbicidal effect (criteria 0-5)” value [12] was 5 (Herbicidal ratio of 90% or more (almost completely withered)). For the same molecule, the “Herbicidal effect grade, C” value [13] was 2 (Herbicidal ratio of 20% or higher and lower than 40%), the “P: Stellaria media, herbicidal effect (criteria 0-5)” value [14] was 0 (Herbicidal ratio of 5% or lower (almost no effect)) and the “P: Stellaria media, herbicidal effect grade” value [15] was 0 (Herbicidal ratio of 5% or lower (almost no effect)). The “K: Lolium multiflorum Lam., herbicidal effect (criteria 0-5)” value [16] was 5 (Herbicidal ratio of 90% or more (almost completely withered)) and the “herbicidal effect on D” value [17] was 5 (Herbicidal ratio of 90% or more (almost completely withered)).

With `CON=C(C)CC1CC(OC(=O)C(C)(C)Oc2ccccc2Cl)=C(c2c(C)cc(C)cc2C)C1=O` (centres unmarked) [1-064] the “g: rapeseed, effect on crop grade” value [1] was 4 (Herbicidal ratio of 70% or higher and lower than 90%), the “L (Apera spica-venti) herbicidal effect grade” value [2, 18] was 5 (Herbicidal ratio of 90% or more (almost completely withered)) and the “N: Amaranthus retroflexus, herbicidal effect grade” value [3] was 2 (Herbicidal ratio of 20% or higher and lower than 40%). The “Effect grade on crop” value [4] was 4 (Herbicidal ratio of 70% or higher and lower than 90%), the “c: corn, effect on crop grade” value [5] was 5 (Herbicidal ratio of 90% or more (almost completely withered)) and the “I (Avena fatua) herbicidal effect grade” value [6, 18] was 3 (Herbicidal ratio of 40% or higher and lower than 70%). For the same molecule, the “M: Abutilon theophrasti, herbicidal effect grade” value [7] was 4 (Herbicidal ratio of 70% or higher and lower than 90%), the “J (Alopecurus myosuroides) herbicidal effect grade” value [8, 18] was 5 (Herbicidal ratio of 90% or more (almost completely withered)) and the “O: Chenopodium album, herbicidal effect grade” value [9] was 0 (Herbicidal ratio of 5% or lower (almost no effect)). For the same molecule, the “R (Veronica persica) herbicidal effect grade” value [10, 18] was 0 (Herbicidal ratio of 5% or lower (almost no effect)), the “G (Setaria viridis) herbicidal effect grade” value [11, 18] was 5 (Herbicidal ratio of 90% or more (almost completely withered)) and the “H: Echinochloa crus-galli var. crus-galli, herbicidal effect grade” value [12] was 5 (Herbicidal ratio of 90% or more (almost completely withered)). For the same molecule, the “Herbicidal effect grade, C” value [13] was 1 (Herbicidal ratio of 5% or higher and lower than 20%), the “P: Stellaria media, herbicidal effect grade” value [14] was 1 (Herbicidal ratio of 5% or higher and lower than 20%) and the “P (Stellaria media) herbicidal effect grade” value [15, 18] was 0 (Herbicidal ratio of 5% or lower (almost no effect)). For the same molecule, the “K: Lolium multiflorum Lam., herbicidal effect grade” value [16] was 3 (Herbicidal ratio of 40% or higher and lower than 70%) and the “herbicidal effect on D” value [17] was 5 (Herbicidal ratio of 90% or more (almost completely withered)).
